Measurements as given in EP4635500A1, “THERAPEUTIC AGENT FOR BACTERIAL INFECTION” (Sumitomo Pharma Co., Ltd., priority 2022, dated 2024).
Values after ≈ are worked out from the molar mass of the structure shown. Where two headings read alike, the source gives them in different places.

Tests used:
53 CRE and CPE strains = experiment: MICrange, MIC50, MIC80, MIC90 for 53 bacterial isolates (Example 5, Table 5); type: cell-based; conditions: 53 bacterial isolates
P. aeruginosa = experiment: MIC, broth microdilution, CDC/FDA Antibiotic Resistance Isolate Bank (Example 7, Tables 10, 15); type: cell-based; conditions: for MIC: Pseudomonas aeruginosa, read-out: MIC
[1] = 26 metallo-carbapenemase-producing P. aeruginosa strains, β-lactamase inhibitor µg/mL in parentheses
[2] = 96 strains of P. aeruginosa, β-lactamase inhibitor µg/mL in parentheses

CC(C)(O/N=C(\C(=O)N[C@@H]1C(=O)N2C(C(=O)[O-])=C(C[n+]3ccccc3)CS[C@H]12)c1csc(N)n1)C(=O)O [CAZ, ceftazidime]
MIC50 (53 CRE and CPE strains; read-out: MIC50): > 32 µg/mL | MIC80 (53 CRE and CPE strains; read-out: MIC80): > 32 µg/mL | MIC90 (53 CRE and CPE strains; read-out: MIC90): > 32 µg/mL

O=C(O)c1cn(C2CC2)c2cc(N3CCNCC3)c(F)cc2c1=O [Ciprofloxacin, ciprofloxacin]
MIC against 26 metallo-carbapenemase-producing strains MIC50 (P. aeruginosa; [1]): 32 µg(mL) | MIC against 26 metallo-carbapenemase-producing strains MIC90 (P. aeruginosa; [1]): 64 µg(mL) | MIC against 96 strains of P. aeruginosa MIC50 (P. aeruginosa; [2]): 16 µg(mL) | MIC against 96 strains of P. aeruginosa MIC90 (P. aeruginosa; [2]): 64 µg(mL) | MIC (P. aeruginosa; P. aeruginosa KUB No. 5602, AR Bank # 105): > 64 µg/mL | MIC (P. aeruginosa; P. aeruginosa KUB No. 5665, AR Bank # 232): 2 µg/mL (≈ 6.04 µM) | MIC (P. aeruginosa; P. aeruginosa KUB No. 5666, AR Bank # 23): 0.5 µg/mL (≈ 1.51 µM) | MIC (P. aeruginosa; P. aeruginosa KUB No. 5667, AR Bank # 234): 2 µg/mL (≈ 6.04 µM) | MIC (P. aeruginosa; P. aeruginosa KUB No. 5669, AR Bank # 236): 4 µg/mL (≈ 12.1 µM) | MIC (P. aeruginosa; P. aeruginosa KUB No. 5675, AR Bank # 242): 8 µg/mL (≈ 24.1 µM) | MIC (P. aeruginosa; P. aeruginosa KUB No. 5676, AR Bank # 243): 8 µg/mL (≈ 24.1 µM) | MIC (P. aeruginosa; P. aeruginosa KUB No. 5705, AR Bank # 272): 8 µg/mL (≈ 24.1 µM) | MIC (P. aeruginosa; P. aeruginosa KUB No. 5747, AR Bank # 351): 2 µg/mL (≈ 6.04 µM) | MIC (P. aeruginosa; P. aeruginosa KUB No. 5748, AR Bank # 352): 4 µg/mL (≈ 12.1 µM) | MIC (P. aeruginosa; P. aeruginosa KUB No. 5750, AR Bank # 354): 4 µg/mL (≈ 12.1 µM) | MIC (P. aeruginosa; P. aeruginosa KUB No. 5754, AR Bank # 358): 4 µg/mL (≈ 12.1 µM) | MIC (P. aeruginosa; P. aeruginosa KUB No. 5755, AR Bank # 359): 4 µg/mL (≈ 12.1 µM) | MIC (P. aeruginosa; P. aeruginosa KUB No. 5798, AR Bank # 455): 1 µg/mL (≈ 3.02 µM) | MIC (P. aeruginosa; P. aeruginosa KUB No. 5801, AR Bank # 458): 0.5 µg/mL (≈ 1.51 µM) | MIC (P. aeruginosa; P. aeruginosa KUB No. 5802, AR Bank # 459): 4 µg/mL (≈ 12.1 µM) | MIC (P. aeruginosa; P. aeruginosa KUB No. 5804, AR Bank # 862): 1 µg/mL (≈ 3.02 µM) | MIC (P. aeruginosa; P. aeruginosa KUB No. 5806, AR Bank # 864): > 64 µg/mL | MIC (P. aeruginosa; P. aeruginosa KUB No. 5813, AR Bank # 508): 0.002 µg/mL (≈ 0.00604 µM) | MIC (P. aeruginosa; P. aeruginosa KUB No. 5815, AR Bank # 510): 0.004 µg/mL (≈ 0.0121 µM) | MIC (P. aeruginosa; P. aeruginosa KUB No. 5817, AR Bank # 512): 0.001 µg/mL (≈ 0.00302 µM) | MIC (P. aeruginosa; P. aeruginosa KUB No. 5820, AR Bank # 515): > 0.064 µg/mL
